Experimental data as given in patent US20050282755A1, “Compositions having antimicrobial activity and uses thereof” (priority 2004, published 2005).
Values after ≈ are worked out from the molar mass of the structure shown. Residues, ends and D or L forms follow the SMILES beside them. *: point of attachment. Stearoyl = CCCCCCCCCCCCCCCCCC(=O)*

Key:
Jurkat cells = assay type: cell-based; settings: 16 h
Description: Toxicity of peptide compositions for mammalian cells was determined by using a metabolic viability assay. For this assay 4×10^5 HeLa cells were seeded per well into a microwell plate (50 microliters volume). Jurkat cells also were utilized in separate experiments. The cells were incubated for 16 hours at 37° C. under mammalian cell culture conditions. Two fold serial dilutions for each peptide were prepared and added to the cells (final volume 100 microliters) and incubated for 16 hours at 37° C. For each dilution series control wells containing cells without peptide were included. The metabolic activity and viability of the cells were determined by using a commercially available assay (CellTiter96 assay, Promega Corp.). According to manufacturer's protocol 20 microliters of CellTiter reagent was added to each well and incubated at 37° C. for 1-4 hours. The CellTiter assay is a commercial version of the MTT assay, which measures the conversion of a tetrazolium […] into a colored formazan salt in metabolically active cells. The formation of the formazan product can be measured at 470 nm and is generally accepted as a measure of cellular viability. The cells were incubated at 37° C. and monitored for color development. The conversion of CellTiter reagent was measured at 470 nm using a Versamax plate reader (Molecular Devices). The viability of peptide treated cells is expressed as IC50 (i.e., concentration that leads to a 50% reduction of viability relative to the untreated control). Table 7A reports IC50 values for HeLa cells cultured in OptiMEM or 10% FBS when contacted with peptide compositions from Table 3, and Table 7B reports IC50 values for HeLa cells or Jurkat cells contacted with peptide compositions from Table 3.

HeLa cells = settings: 16 h
[1] = system: Staphylococcus aureus ATCC 29213; assay: MIC, NCCLS M7-A6 broth microdilution, cation-adjusted Mueller Hinton broth (Table 9, no superscript); assay type: cell-based; settings: ATCC 29213
Procedure, shortened: (§1)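 Log-phase bacteria were added to wells containing peptide in cation-adjusted Mueller Hinton broth at a final 5×10^5 to 1×10^6 CFU/milliliter. Plates then sat overnight at 37° C. Wells were scored visually for turbidity against a peptide-free control.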

IL-12 release = assay: Anti-inflammation assay: IL-12 release in PBMCs stimulated by P. acnes (IL-12p70 ELISA); assay type: cell-based, human; settings: for reduction of IL-12 release in PBMs stimulated by P. acnes: 12.5 to 0.78 micrograms per milliliter; for IC50: PBMCs stimulated by P. acnes, over night, read-out: IC50 value, reduction of IL-12 release
Description: An assay that detected reductions in IL-12 released in whole human blood cells (PBMCs) was utilized to detect reductions in inflammation elicited by peptide compositions described herein. The assay utilized the following materials and reagents: whole human blood cells; P. acnes; peptides 55, 67 and 93 from Table 3; IL-12p70 ELISA kit (eBiosciences); RPMI 1640 growth medium; PBS; and a 96-well microtiter plate. PBMCs were prepared from whole human blood cells according to standard procedures and cells were resuspended in RPMI 1640 and 10% FCS. Cells were seeded at 250,000 cells per well in a 96-well microtiter plate and incubated for 90 minutes. […] Controls included untreated cells, P. acnes alone or a peptide alone. The cells were incubated over night at 37° C., and cell supernatants were collected and stored at −80° C. for use in an IL-12 ELISA assay (eBiosciences). A 1:1 dilution of supernatant was utilized to perform the IL-12 ELISA following the protocol provided by the manufacturer.

Salmonella dublin (Lane) = assay: MIC, NCCLS M7-A6 broth microdilution (Table 9, no superscript); assay type: cell-based
Procedure, shortened: as §1

[2] = system: Pseudomonas aeruginosa ATCC 27853; assay: as above; assay type: cell-based; settings: ATCC 27853
Procedure, shortened: as §1

[3] = system: Escherichia coli ATCC 25922; assay: as above; assay type: cell-based; settings: ATCC 25922
Procedure, shortened: as §1

[4] = system: Staphylococcus epidermidis ATCC 12228; assay: as above; assay type: cell-based; settings: ATCC 12228
Procedure, shortened: as §1

Compound	IC50 (Jurkat cells)	IC50 (HeLa cells)	MIC S. aureus [1]	reduction of IL-12 release in PBMs stimulated by P. acnes (IL-12 release)	MIC S. dublin (Salmonella dublin (Lane))	IC50 (IL-12 release)	MIC P. aeruginosa [2]	MIC E. coli [3]	MIC S. epidermidis [4]
CSCC[C@H](NC(=O)[C@H](Cc1ccccc1)NC(=O)[C@H](CC(N)=O)NC(=O)[C@H](CCCNC(=N)N)NC(=O)[C@H](CO)NC(=O)[C@H](Cc1c[nH]c2ccccc12)NC(=O)[C@H](CC(=O)O)NC(=O)[C@H](CCCNC(=N)N)NC(=O)[C@H](Cc1c[nH]c2ccccc12)NC(=O)[C@H](CCCNC(=N)N)NC(=O)[C@H](CO)NC(=O)[C@H](CCCNC(=N)N)NC(=O)CNC(=O)[C@@H](NC(=O)[C@H](CCCNC(=N)N)NC(=O)[C@H](CO)NC(=O)[C@@H](NC(=O)[C@H](CCCNC(=N)N)NC(=O)[C@@H](NC(C)=O)[C@@H](C)O)C(C)C)[C@@H](C)O)C(=O)N[C@@H](CCCNC(=N)N)C(=O)N[C@@H](C)C(=O)N[C@@H](C)C(N)=O [Peptide 1]	> 100 µM	> 100 µM	–	–	–	–	–	–	–
CCCCCCCCCCCCCCCCCC(=O)N[C@H](C(=O)N[C@@H](CCCNC(=N)N)C(=O)N[C@H](C(=O)N[C@@H](CO)C(=O)N[C@@H](CCCNC(=N)N)C(=O)N[C@H](C(=O)NCC(=O)N[C@@H](CCCNC(=N)N)C(=O)N[C@@H](CO)C(=O)N[C@@H](CCCNC(=N)N)C(=O)N[C@@H](Cc1c[nH]c2ccccc12)C(=O)N[C@@H](CCCNC(=N)N)C(=O)N[C@@H](CC(=O)O)C(=O)N[C@@H](Cc1c[nH]c2ccccc12)C(=O)N[C@@H](CO)C(=O)N[C@@H](CCCNC(=N)N)C(=O)N[C@@H](CC(N)=O)C(=O)N[C@@H](Cc1ccccc1)C(=O)N[C@@H](CCSC)C(=O)N[C@@H](CCCNC(=N)N)C(N)=O)[C@@H](C)O)C(C)C)[C@@H](C)O [Peptide 67] (Stearoyl-TRVSRTGRSRWRDWSRNFMR-NH2)	–	–	64 µg/mL (≈ 22.2 µM)	dose response of reduction of IL-12 release	64 µg/mL (≈ 22.2 µM)	–	–	–	–
CSCC[C@H](NC(=O)[C@H](Cc1ccccc1)NC(=O)[C@H](CC(N)=O)NC(=O)[C@H](CCCNC(=N)N)NC(=O)[C@H](CO)NC(=O)[C@@H](NC(=O)[C@H](CC(=O)O)NC(=O)[C@H](CCCNC(=N)N)NC(=O)[C@H](Cc1c[nH]c2ccccc12)NC(=O)[C@H](CCCNC(=N)N)NC(=O)[C@H](CO)NC(=O)[C@H](CCCNC(=N)N)NC(C)=O)C(C)C)C(=O)N[C@@H](CCCNC(=N)N)C(N)=O [Peptide 93, Ac-RSRWRDVSRNFMR-NH2] (Ac-RSRWRDVSRNFMR-NH2)	–	–	>64 µg/mL	dose response of reduction of IL-12 release	>64 µg/mL	0.8 µM	>64 µg/mL	>64 µg/mL	>64 µg/mL
H2N-kkkkkkkkaatrvartgrsrwrdvarnfmr-NH2 (KKKKKKKKAATRVARTGRSRWRDVARNFMR; N-terminal amine, C-terminal amide) [Peptide 55]	–	–	–	–	–	> 20 µM	–	–	–
